Experimental data from patent US20220218757A1, “THERAPEUTICALLY ACTIVE CELLS AND EXOSOMES” (Cedars-Sinai Medical Center, priority 2019, published 2022).

What was measured:
[1] = tested on: β-catenin; experiment: Total β-catenin ELISA of cells; type: cell-based, Human; conditions: for duration / decay of effect on β-catenin after GSK3β inhibition: CDCs, BIO (reversible) vs tideglusib (irreversible)
Procedure: (§1) Cell lysates were collected for ELISA and western blot. For ELISA, 4×10^5 cells were collected and pelleted at 1,000 rpm for 5 min at 4° C. Cell pellets were lysed in 1× lysis buffer (Affymetrix eBioscience InstantOne ELISA kit) and incubated for 10 min at room temperature with regular agitation. For western blot, cells were pelleted and resuspended in 1× RIPA buffer (Alfa Aesar) with protease inhibitor on ice for 30 min. Protein lysates were isolated by centrifugation at 14,000 rpm for 15 min at 4° C. Protein concentration was measured using a DC™ Protein Assay kit (Bio-Rad).
(§2) Cells were exposed to 5 μM of 6-bromoindirubin-3′-oxime (BIO, Sigma-Aldrich) or 4-Benzyl-2-(naphthalene-1-yl)-[1,2,4]thiadiazolidine-3,5-dione (Tideglusib, Sigma-Aldrich) for 48 or 72 hours in complete media.
Total β-catenin ELISA was performed according the protocol described with a final sample concentration of 0.01 mg/ml and positive control of 0.1 mg/ml (Affymetrix eBioscience InstantOne™ ELISA).

[2] = tested on: CDCs; experiment: Flow cytometry of CD90, CD105, DDR2 and LRP5/6; type: cell-based, Human
Procedure: as §2
Cells were harvested and counted (2×10^5 cells per condition). Cells were washed with 1% bovine serum albumin (BSA) in 1× phosphate-buffered saline (PBS) and stained with the appropriate antibody (BD Pharmingen) for 1 hr at 4° C. Cells were then washed again and resuspended in 1% BSA in 1×PBS. BD Cytofix/Cytoperm™ kit was used for cell permeabilization before staining. Flow analysis was done using a BD FACS Canto™ II instrument.

[3] = tested on: CDCs; experiment: RNA sequencing and qPCR of BIO-exposed versus vehicle-exposed CDCs (LP, LPL, imCDC); type: cell-based, Human
Procedure: (§3) Cell RNA was isolated using a miRNeasy Mini Kit (Qiagen). Exosome RNA was isolated using the Urine Exosome RNA Isolation Kit (Norgen Biotek Corp.). Reverse transcription was performed using High Capacity RNA to cDNA (Thermo Fisher Scientific) or TaqMan® microRNA Reverse Transcription Kit (Applied Biosystems) for RNA and micro RNA, respectively. Real-time PCR was performed using TaqMan Fast Advanced Master Mix and the appropriate TaqMan® Gene Expression Assay (Thermo Fisher Scientific). Samples were processed and analyzed using a QuantStudio™ 12K Flex Real-Time PCR system and each reaction was performed in triplicate samples (with housekeeping genes hprt1 for mRNA and miR23a for microRNA). The gene expression assays/microRNAs used in this study were as follows (Thermo Fisher Scientific):
Cell and exosome RNA samples were sequenced at the Cedars Sinai Genomics Core. Total RNA and Small RNA were analyzed using an Illumina NextSeq 500 platform for cell and exosome samples respectively.
as §2
To understand how β-catenin drives potency, the transcriptomes of LP CDCs to those of the same cell batches after exposure to BIO were compared. As stated above, three scenarios associated with low potency were identified: donor-related, in which all lots from a given donor lack potency; lot-dependent, in which some lots are potent and others are not; and immortalized CDCs (imCDCs). Using RNA sequencing, LP cells from each scenario were compared after exposure to BIO versus vehicle alone. […] Differential expression of microRNAs (miRs) between the two groups further identified a cognate miR coregulated with mest (miR-335; FIG. 3C, FIGS. 9D and 9E). […] Mest modulates Wnt/β-catenin signaling indirectly through glucosyltransferases that prevent LRP5/6 receptor maturation. […]

[4] = tested on: EXTL1; experiment: Western blot of EXTL1 protein; type: cell-based, Human; conditions: CDC (LP) exposure to BIO
Procedure: as §1

[5] = tested on: SCID/beige mice with acute myocardial infarction; experiment: Mouse acute MI model (echocardiography, Masson's trichrome histology, mortality); type: in vivo; conditions: for myocardial function in mice with MI, drugs given independent of CDCs: relative to controls
Procedure: Acute myocardial infarction was induced in three-month-old male severe combined immunodeficient (SCID)/beige mice (n=5-7 animals per group). Within 10 min of coronary ligation, 1×10^5 cells, EVs, drugs (or vehicle) were injected intramyocardially.
Echocardiography. Echocardiography study was performed in the SCID/beige at 24 hr (baseline) and three weeks after surgery using Vevo 3100 or 770 Imaging System (Visual Sonics) as described. The average of the left ventricular ejection fraction was analyzed from multiple left ventricular end-diastolic and left ventricular end-systolic measurements.
Animals were sacrificed 3 weeks after MI induction. Hearts were harvested and a transverse cut was made slightly above the MI suture. The apical portion was then embedded in optimum cutting temperature solution in a base mold/embedding ring block (Tissue Tek). Blocks were immediately frozen by submersion in cold 2-methylbutane. Hearts were sectioned at a thickness of 5 μm.
Two slides containing a total of four sections per heart were stained using Masson's trichrome stain. In brief, sections were treated overnight in Bouin's solution. Slides were then rinsed for 10 min under running water and stained with Weigert's hematoxylin for 5 min. Slides were then rinsed and stained with scarlet-acid fuchsin for 5 min and rinsed again. Slides were then stained with phosphotungstic/phosphomolybdic, aniline blue, and 2% acetic acid for 5 min each. Slides were then rinsed, dried, and mounted using DPX mounting media.

[6] = tested on: immortalized CDCs; type: cell-based, Human
Procedure: as §2

[7] = tested on: CDC EVs; experiment: qPCR of miRs in EVs from BIO-exposed versus vehicle-exposed CDCs; type: cell-based, Human; conditions: EVs of LP, LPL, imCDC exposed to BIO vs vehicle
Procedure: Extracellular Vesicles were harvested from primary CDCs at passage 5 or older passages from transduced cells using a hypoxic cycling method used previously. Briefly, cells were grown to confluence at 20% O2/5% CO2 at 37° C., and then cells were serum-free at 2% O2/5% CO2 at 37° C. overnight after one wash. Conditioned media was collected and filtered through 0.45 μm filter to remove apoptotic bodies and cellular debris and frozen for later use at −80° C. EVs were purified using centrifugal ultrafiltration with a 1000 KDa molecular weight cutoff filter (Sartorius). EV preparations were analyzed through Malvern Nanosight NS300 Instrument (Malvern Instruments) with the following acquisition parameters: camera levels of 15, detection level less than or equal to 5, number of videos taken 4, and video length of 30 s.
as §3, with “Real-time PCR was performed using TaqMan Fast Advanced Master Mix and the appropriate TaqMan® Gene Expression Assay (Thermo Fisher Scientific).” left out, “The gene expression assays/microRNAs used in this study were as follows (Thermo Fisher Scientific):” left out

O=C1Nc2cc(Br)ccc2/C1=C1/Nc2ccccc2/C1=N\O [BIO, 6-bromoindirubin-3′-oxime]
concentration at which BIO is maximally effective in CDCs (β-catenin ELISA) ([1]; CDCs exposed to increasing concentrations of BIO): 5 µM
duration / decay of effect on β-catenin after GSK3β inhibition [1]: more rapid decay of effect
β-catenin levels ([1]; LP CDC line exposed to 5 μM BIO vs vehicle): increase β-catenin levels
expression of CD90 ([2]; BIO-exposed LP cells): decreased the expression of CD90
expression of CD105 ([2]; BIO-exposed LP cells): without affecting
expression of DDR2 ([2]; BIO-exposed LP cells): without affecting
LRP5/6 level (flow cytometry) ([2]; LP CDCs exposed to BIO): upregulated its glycosylation target LRP5/6 (although that difference was not statistically significant
miR-335 expression in cells ([3]; BIO vs vehicle, LP, LPL and imCDC): downregulated
downregulation of mest ([3]; BIO vs vehicle, fold changes pooled over LP, LPL and imCDC): ~30 fold
LRP5/6 transcripts ([3]; BIO-exposed LP, LPL and imCDCs, qPCR): unchanged
EXTL1 protein levels [4]: decreased EXTL1 protein levels
potency of immortalized CDCs after exposure to BIO ([5]; imCDC pre-exposed to BIO, then injected): restored potency
myocardial function in mice with MI, drugs given independent of CDCs [5]: Neither BIO nor the canonical Wnt inhibitor JW67 significantly altered myocardial function
cell growth and viability [6]: cell growth and viability were undermined
EV levels of miR-335 [7]: decreased significantly

O=C1Nc2ccccc2C12OCC1(CO2)COC2(OC1)C(=O)Nc1ccccc12 (centres unmarked) [JW67]
myocardial function in mice with MI, drugs given independent of CDCs [5]: Neither BIO nor the canonical Wnt inhibitor JW67 significantly altered myocardial function

O=c1sn(-c2cccc3ccccc23)c(=O)n1Cc1ccccc1 [Tideglusib, 4-Benzyl-2-(naphthalene-1-yl)-[1,2,4]thiadiazolidine-3,5-dione]
duration / decay of effect on β-catenin after GSK3β inhibition [1]: directionally similar but longer-lasting effects
